Source: patent US20210369662A1, “FAT ACCUMULATION INHIBITOR AND BLOOD LIPID LEVEL IMPROVING AGENT” (ASAHI GROUP HOLDINGS, LTD., priority 2018, published 2021)

Assays:
[1] = system: C57BL/6N male mice on high-fat diet; experiment: Plasma lipids and apolipoprotein A-I in high-fat diet mice; type: in vivo; conditions: 0.1% 10-HOA in high-fat diet, 15 weeks
Procedure: (§1) The animal experiment was approved by the Animal Experiment Committee of Asahi Group Holdings, Ltd. (Mar. 9, 2017), and was conducted in accordance with the guidelines for the management and use of laboratory animals of the company's R&D center (implementation period: Apr. 3, 2017 to Jan. 10, 2018). Four-week-old C57BL/6N male mice (Japan SLC, Inc.) were purchased and used for the experiment. The mice were raised in the following environment: room temperature: 23±1.5° C., humidity: 55±15%, lighting time: 8:00 to 20:00.
(§2) High-fat diet containing 45 kcal % fat (Research Diets, Inc., D12451) was used to prepare feed with or without 0.1% 10-HOA. The four-week-old mice were acclimated to the high-fat diet for 2 weeks, then divided into two groups: (1) high-fat diet control group and (2) 0.1% 10-HOA-containing high-fat diet group, with 10 mice per group, and were administered the diet for 15 weeks. Feed and drinking water (tap water) were given freely by individual housing.
(§3) After fasting for 16 hours from the day before dissection, the amount of abdominal visceral fat, subcutaneous fat, and total fat (sum of the amount of visceral fat and subcutaneous fat) were measured by a CT scanner (Latheta LCT-100; Hitachi Aloka Medical, Ltd.), under anesthesia by isoflurane inhalation. Then, the abdomen was opened under anesthesia, and blood was collected from the abdominal vena cava. Visceral fat (perirenal fat, and retroperitoneal fat) and jejunal epithelial tissue were collected to measure the weight of adipose tissue. The above test was repeated three times, and an analysis was performed by a two-way analysis of variance (factor 1: test group, factor 2: number of animal experiments) (n=10×3/group).
The triglyceride concentration in the plasma was measured using a Triglyceride E test. The amount of cholesterol in the plasma was measured using a conventional method (G. Toshima et al., LipoSEARCH (registered trademark); Analytical GP-HPLC method for lipoprotein profiling and its applications, J. Biol. Macromol., 13 (2), 21-32 (2013)) at Skylight Biotech Inc,. Mouse Apolipoprotein A-I ELISAPRO kit (MABTECH) was used for the measurement of apolipoprotein A-I in the plasma. The jejunal epithelial tissue was collected by QIAzol Lysis Reagent (QIAGEN), and total RNA was extracted according to the product protocol of RNeasy Mini Kit (QIAGEN). Total RNA was reverse transcribed by M-MLV Reverse Transcriptase (Life Technologies Japan Ltd.) to prepare cDNA. To measure the mRNA expression level, real-time PCR by the intercalator method was performed using Light Cycler System (Roche Diagnostics K.K.). […] The mRNA expression level was expressed as a relative value to the control group.

[2] = system: cholesterol transporter (NPC1L1); experiment: Gene expression level of cholesterol transporter in jejunal epithelial tissue (real-time PCR); type: in vivo, mice; conditions: 0.1% 10-HOA in high-fat diet, 15 weeks, mRNA relative to control group, internal standard 36b4 (FIG. 8)
Procedure: as §1
High-fat diet containing 45 kcal % fat (Research Diets, Inc., D12451) was used to prepare feed with or without 0.1% 10-HOA. […]
After fasting for 16 hours from the day before dissection, the amount of abdominal visceral fat, subcutaneous fat, and total fat (sum of the amount of visceral fat and subcutaneous fat) were measured by a CT scanner (Latheta LCT-100; Hitachi Aloka Medical, Ltd.), under anesthesia by isoflurane inhalation. […]
The triglyceride concentration in the plasma was measured using a Triglyceride E test. The amount of cholesterol in the plasma was measured using a conventional method (G. Toshima et al., LipoSEARCH (registered trademark); Analytical GP-HPLC method for lipoprotein profiling and its applications, J. Biol. Macromol., 13 (2), 21-32 (2013)) at Skylight Biotech Inc,. […] The mRNA expression level was expressed as a relative value to the control group.

[3] = system: C57BL/6N male mice on high-fat diet; experiment: Fat accumulation in high-fat diet mice (CT scan and adipose tissue weight); type: in vivo; conditions: 15 weeks
Procedure: as §1, §2, §3

[4] = 0.1% 10-HOA in high-fat diet (45 kcal % fat), adipose tissue weight, n=10x3/group

## CCCCCCCCC(O)CCCCCCCCC(=O)O (stereo not shown) [10-HOA, 10-hydroxyoctadecanoic acid]
[1]; 16 h fasting, compared to control (FIG. 4)
  triglyceride concentration in plasma: decreasing tendency
[1]; ELISA, compared to control (FIG. 6)
  Apolipoprotein A-I in plasma: increasing tendency
[1]; compared to control (FIG. 5)
  small HDL cholesterol in plasma: significantly increased
[1]; compared to control (FIG. 7)
  chylomicron cholesterol in plasma: significant decrease
[2]
  gene expression level of the cholesterol transporter (NPC1L1) in jejunal epithelial tissue: decrease
[3]; [4]
  Fat on the posterior abdominal wall: 0.6805 ± 0.0206 g
  Perirenal fat: 0.4924 ± 0.0130 g
[3]; 0.1% 10-HOA in high-fat diet, compared to control (Table 1)
  weights of perirenal fat and retroperitoneal fat: reduced
[3]; CT scanner, 0.1% 10-HOA in high-fat diet, compared to control group (FIG. 1)
  amount of abdominal visceral fat: significantly reduced
[3]; CT scanner, sum of visceral and subcutaneous fat, 0.1% 10-HOA in high-fat diet, compared to control (FIG. 3)
  total amount of fat: decreasing tendency
